A word on the EC50: it is the midpoint of the concentration-response curve.

For the first assay, the target named is T1, OX2 receptor (Homo sapiens, UniProt O43614).
T1 construct: expressed in transfected cells; host or cells: unnamed cell line stably co-expressing apoaequorin and OX2 receptor, cultured in Ham's F12 with G418 and Zeocin
T1 sequence (O43614 1-444): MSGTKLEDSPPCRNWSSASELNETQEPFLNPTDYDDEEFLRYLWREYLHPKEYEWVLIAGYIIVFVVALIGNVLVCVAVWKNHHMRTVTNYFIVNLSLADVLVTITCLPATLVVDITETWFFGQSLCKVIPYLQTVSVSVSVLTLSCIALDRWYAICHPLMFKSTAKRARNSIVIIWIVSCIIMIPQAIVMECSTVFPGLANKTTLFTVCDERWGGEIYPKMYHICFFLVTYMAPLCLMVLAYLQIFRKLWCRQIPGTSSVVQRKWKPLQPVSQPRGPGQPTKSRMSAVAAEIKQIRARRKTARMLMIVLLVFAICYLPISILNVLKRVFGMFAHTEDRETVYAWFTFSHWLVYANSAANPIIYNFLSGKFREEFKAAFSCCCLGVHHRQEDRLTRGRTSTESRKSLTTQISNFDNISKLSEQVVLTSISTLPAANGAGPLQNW
As to the kind of experiment: Functional assay for in vitro evaluation of OX2 receptor agonist activity (aequorin light emission, increase in intracellular calcium). It is filed as cell-based. The settings on record: OX2R Agonism, Table 1; cell line co-expressing apoaequorin and OX2 receptor; related to the maximum effect induced by the orexin peptide. From the text: The method of choice for the in vitro evaluation of OX2 receptor agonists is the measure of the increase in intracellular calcium induced by the activation of the receptor. OX2 receptor is stably expressed in a cell line co-expressing apoaequorin, a photoprotein which needs a hydrophobic prosthetic group, coelenterazine, to be converted to aequorin, the active enzyme. After calcium binding, aequorin oxidizes coelenterazine to coelenteramide with the production of CO2 and emission of light. The measurement of light emission after the addition of agonists reflects its ability to activate the receptor.
Cell line co-expressing apoaequorin and OX2 receptor were cultured as a monolayer at 37°C and 5% CO2 in complete Ham's F12 medium supplemented with FBS 10%, penicillin (100 IU/ml)-streptomycin (100 µg/ml), Geneticin (G418, 400 µg/ml) and Zeocin (250 µg/ml). Before starting the experiment, cells were incubated with a medium without antibiotics for 18 hours. After this incubation, the cells were detached from the culture plates and they were resuspended in DMEM-F12/0.1% BSA at a final concentration of 5x10^6 cells/ml. Cells were then incubated with 5 µM of coelenterazine at room temperature on a vertical rotating wheel for at least 3 hours. Following incubation with coelenterazine cells were diluted 1:10 with DMEM-F12/0.1% BSA and incubated in magnetic agitation for 1 hour.
Dose-response curves were performed for each compound. 50 µl of pre-loaded cells were injected over test compounds in a 96 wells plate. Results were expressed as the concentration of the compound where 50% of its maximal effect is observed (EC50), related to the maximum effect induced by the orexin peptide on the receptor. OX2R Agonism
Background: Calcium assays in cells follow changes in intracellular calcium, usually with a dye or a luminescent sensor.
`COc1ccc(N)c(OC2=C(Cl)C(=O)c3ccccc3C2=O)c1C` [Example 1, 2-(6-amino-3-methoxy-2-methylphenoxy)-3-chloronaphthalene-1,4-dione]: the EC50 is 28 nM.
Still for that read-out and setting: for `COc1ccc(N)c(OC2=C(Cl)C(=O)c3ccccc3C2=O)c1Cl` [Example 2, 2-(6-amino-2-chloro-3-methoxyphenoxy)-3-chloronaphthalene-1,4-dione] the value was 50 nM; for `Cc1c(Cl)ccc(OC2=C(Cl)C(=O)c3ccccc3C2=O)c1N` [Example 3, 2-(2-amino-4-chloro-3-methylphenoxy)-3-chloronaphthalene-1,4-dione], 110 nM.
Consider `Cc1cc(C)c(N)c(OC2=C(Cl)C(=O)c3ccccc3C2=O)c1` [Example 4, 2-(2-amino-3,5-dimethylphenoxy)-3-chloronaphthalene-1,4-dione], for which the EC50 was determined as 60 nM.
On to `Cc1cc(Cl)cc(N)c1OC1=C(Cl)C(=O)c2ccccc2C1=O` [Example 5, 2-(2-amino-4-chloro-6-methylphenoxy)-3-chloronaphthalene-1,4-dione], for which the EC50 is 80 nM.
For the molecule `Cc1cc(Br)cc(N)c1OC1=C(Cl)C(=O)c2ccccc2C1=O` [Example 6, 2-(2-amino-4-bromo-6-methylphenoxy)-3-chloronaphthalene-1,4-dione], the EC50 was 90 nM.
With `Cc1ccc(OC2=C(Cl)C(=O)c3ccccc3C2=O)c(N)c1C` [Example 7, 2-(2-amino-3,4-dimethylphenoxy)-3-chloronaphthalene-1,4-dione], the EC50 was 50 nM.
For the molecule `Cc1cc(C)c(N)c(OC2=C(Cl)C(=O)c3ccccc3C2=O)c1C` [Example 8, 2-(2-amino-3,5,6-trimethylphenoxy)-3-chloronaphthalene-1,4-dione], the EC50 is 58 nM.
Still for that read-out and setting: the figure for `Cc1cc(C)c(OC2=C(Cl)C(=O)c3ccccc3C2=O)c(N)c1C` [Example 9, 2-(2-amino-3,4,6-trimethylphenoxy)-3-chloronaphthalene-1,4-dione] is 130 nM.

The same assay, now with this note: OX2R Agonism, Table 2, comparative examples (compounds described in PCT/EP2014/062349); same experimental methodology.
As for `Nc1ccccc1OC1=C(Cl)C(=O)c2ccccc2C1=O` [Example C1], the EC50 is 516 nM.
On to `Cc1ccc(OC2=C(Cl)C(=O)c3ccccc3C2=O)c(N)c1` [Example C2], for which the EC50 came out at 242 nM.
Still for that read-out and setting: for `Nc1cc(Cl)ccc1OC1=C(Cl)C(=O)c2ccccc2C1=O` [Example C3] the value was 737 nM; for `Nc1ccc(Cl)cc1OC1=C(Cl)C(=O)c2ccccc2C1=O` [Example C4], 747 nM; for `Nc1cc(F)ccc1OC1=C(Cl)C(=O)c2ccccc2C1=O` [Example C5], 578 nM.
Turning to `COC(=O)c1ccc(OC2=C(Cl)C(=O)c3ccccc3C2=O)c(N)c1` [Example C6], the EC50 was 4060 nM.
For the molecule `CC(=O)c1ccc(OC2=C(Cl)C(=O)c3ccccc3C2=O)c(N)c1` [Example C7], the EC50 is 4370 nM.
Still for that read-out and setting: for `Nc1cc(C(F)(F)F)ccc1OC1=C(Cl)C(=O)c2ccccc2C1=O` [Example C8] the value was 700 nM; for `Nc1ccc(F)cc1OC1=C(Cl)C(=O)c2ccccc2C1=O` [Example C9], 390 nM.
Take `Cc1cc(N)c(OC2=C(Cl)C(=O)c3ccccc3C2=O)cc1C` [Example C10]: the EC50 came out at 670 nM.
With `Nc1cc(Cl)cc(Cl)c1OC1=C(Cl)C(=O)c2ccccc2C1=O` [Example C11], the concentration for a half-maximal effect (EC50) is 390 nM.
On to `Cc1ccc(C)c(OC2=C(Cl)C(=O)c3ccccc3C2=O)c1N` [Example C12], for which the 50% effective concentration (EC50) came out at 150 nM.

Source of the values: EP3029024A1, “2-(2-aminophenoxy)-3-chloronaphthalene-1,4-dione compounds having orexin 2 receptor agonist activity” (Ferrer Internacional, S.A., priority 2014, dated 2016).
